# From US20100234381A1, “BIOMARKERS AND METHODS FOR DETERMINING SENSITIVITY TO VASCULAR ENDOTHELIAL GROWTH FACTOR RECEPTOR-2 MODULATORS” (Bristol-Myers Squibb Company, priority 2007, published 2010)
# “Also recorded” adds a separate entry of the source.
# What was measured:
# Type in all cases: cell-based
# [1] = tested on: MIAPAC-2 pancreatic cancer cells; assay: FGF2-induced proliferation of MIAPAC-2 pancreatic cancer cells (modified MTS assay)
# Procedure: Cell proliferation was determined by a modified MTS assay with […] 96® Aqueous One Solution Reagent (Promega, Madison, Wis.). A2780 ovarian cancer cells, MIAPAC-2 pancreatic cancer cells, or GEO colon cancer cells were seeded on 96-well flat-bottomed tissue culture plates (Becton Dickinson, San Jose, Calif.) at a concentration of 3×10^3 cells/well in RPMI 1640 with 1% fetal bovine serum at 37° C. in 5% carbon dioxide/95% air in the presence of 100 units/ml penicillin, 100 μg/ml streptomycin and allowed to adhere to the plate overnight. Then the cells were incubated in the presence of each concentration of 0 (control), 0.3, 0.6, 1.25, 2.5, 5, 10 ng/ml of FGF2 or VEGF for another 72 hours at 37° C. in a humidified atmosphere of 5% CO2 in air. After treatment, 20 μl of […] 96® Aqueous One Solution Reagent was dropped into each well of plates. After 180 minutes incubation, the optical densities (OD) of these samples were directly measured using SPECTRAMAX® plus (Molecular Device, California) and reference wavelength of 490 nm. The OD of control samples was regarded as 100. Each condition was performed with 4 wells and experiment was repeated twice.
# [2] = tested on: FGF2-stimulated cancer cell lines; assay: FGF2-stimulated tumor cell proliferation, panel of cancer cell lines; settings: for Brivanib-resistant (>3 μM) cell lines, number / Brivanib-sensitive (≦3 μM) cell lines, number: following FGF2 stimulation
# Procedure: […], GEO, L2987, 786-0, A549, A498, Du145, PANC-1, ACHN, HT1197, CALU6, SKOV3, 769-[…], HCT166 and UMUC3. […] Gene expression profiling was performed on RNA samples from tumor cell lines using AFFYMETRIX® GeneChip System.
# [3] = tested on: GEO colon cancer cells; assay: FGF2-induced proliferation of GEO colon cancer cells (modified MTS assay)
# Procedure: Cell Culture-GEO colon cancer cell line was routinely maintained in RPMI 1640 (Cellgro, Virginia) with 1% fetal bovine serum (Cellgro, Virginia) at 37° C. in 5% carbon dioxide/95% air in the presence of 100 units/ml penicillin, 100 μg/ml streptomycin (Cellgro, Virginia). Cell proliferation was determined by a modified MTS assay with […] 96® Aqueous One Solution Reagent (Promega, Madison, Wis.). […] After 180 minutes incubation, the optical densities (OD) of these samples were directly measured using SPECTRAMAX® plus (Molecular Device, California) and reference wavelength of 490 nm. […] Cell proliferation was determined by a modified MTS assay with […] […] After 180 minutes incubation, the optical densities (OD) of these samples were directly measured using SPECTRAMAX® plus (Molecular Device, California) and reference wavelength of 490 nm. […] […]
substance,measurement,setting,value
"[(1R),2S]-2-Aminopropionic acid 2-[4-(4-fluoro-2-methyl-1H-indol-5-yloxy)-5-methylpyrrolo[2,1-f][1,2,4]triazin-6-yloxy]-1-methylethyl ester [brivanib]",effect on FGF2-induced cellular proliferation,[1]; MIAPAC-2 pancreatic cancer cells,potently inhibited; also recorded: inhibits ovarian cancer and pancreatic cancer cell line growth directly
same,inhibition of FGF2-induced cell growth,[1]; pancreatic cancer cell line MIAPAC-2,> 50%
same,IC50,"[1]; pancreatic cancer cell line MIAPAC-2, read-out: IC50, FGF2-induced cell growth",< 500 nM
same,"Brivanib-resistant (>3 μM) cell lines, number",[2]; Bladder cell lines,2
same,"Brivanib-sensitive (≦3 μM) cell lines, number",[2]; Bladder cell lines,1
same,"Brivanib-sensitive (≦3 μM) cell lines, number",[2]; Colon cell lines,0
same,"Brivanib-sensitive (≦3 μM) cell lines, number",[2]; NSCLC cell lines,2
same,"Brivanib-resistant (>3 μM) cell lines, number",[2]; Prostate cell lines,1
same,"Brivanib-resistant (>3 μM) cell lines, number",[2]; Total of cell lines,10
same,inhibition of FGF2-induced tumor cell proliferation,"[2]; panel of cancer cell lines, in vitro",inhibited FGF2-induced tumor cell proliferation in 16 cancer cell lines; also recorded: inhibits FGF2-induced tumor cell line growth with much lower IC50 values than sunitinib
same,"GEO tumor cell growth over time, stimulated with FGF2","[3]; 2.5 μM brivanib, day 1 to 8 compared to day 0 control",inhibited GEO tumor cell growth stimulated with FGF2
same,inhibition of FGF2-induced cellular proliferation in GEO cells,"[3]; FGF2 2.5 ng/ml, 72 hours",potently inhibited; also recorded: inhibited cancer cell growth directly; also recorded: inhibits colon cancer cell growth directly
